What was measured:
[1] = target: T1, panel of 468 kinases (Homo sapiens, UniProt Q32MK0); test: KINOMEscan (ScanMAX) kinase profiling; format: binding; conditions: MLCK; 1 μM; read-out: % control
T1 construct: purchased KINOMEscan (ScanMAX) service
T1 sequence (Q32MK0 1-819): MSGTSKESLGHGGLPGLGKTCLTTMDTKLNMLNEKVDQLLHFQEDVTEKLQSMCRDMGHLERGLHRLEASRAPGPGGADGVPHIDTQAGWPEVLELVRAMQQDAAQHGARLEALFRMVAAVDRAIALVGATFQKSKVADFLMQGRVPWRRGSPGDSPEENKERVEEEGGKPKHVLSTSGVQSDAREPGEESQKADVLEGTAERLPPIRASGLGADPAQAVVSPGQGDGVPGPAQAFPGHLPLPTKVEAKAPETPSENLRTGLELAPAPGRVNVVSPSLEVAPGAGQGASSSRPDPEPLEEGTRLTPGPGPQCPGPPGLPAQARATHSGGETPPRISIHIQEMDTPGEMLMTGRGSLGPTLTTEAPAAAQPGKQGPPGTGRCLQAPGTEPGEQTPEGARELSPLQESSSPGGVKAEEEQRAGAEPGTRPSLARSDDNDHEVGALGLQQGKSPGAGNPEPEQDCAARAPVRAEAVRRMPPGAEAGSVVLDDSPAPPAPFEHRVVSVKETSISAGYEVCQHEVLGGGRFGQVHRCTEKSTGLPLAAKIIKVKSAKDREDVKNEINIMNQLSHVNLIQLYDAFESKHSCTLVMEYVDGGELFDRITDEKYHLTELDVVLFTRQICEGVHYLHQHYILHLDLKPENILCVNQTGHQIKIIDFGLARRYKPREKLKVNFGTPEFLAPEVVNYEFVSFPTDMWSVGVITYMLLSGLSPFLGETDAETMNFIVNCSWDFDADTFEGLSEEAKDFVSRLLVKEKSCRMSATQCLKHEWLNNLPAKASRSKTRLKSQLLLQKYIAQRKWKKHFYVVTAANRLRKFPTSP

[2] = target: T2, panel of 468 kinases (Homo sapiens, UniProt P29322); test: KINOMEscan (ScanMAX) kinase profiling; format: binding; conditions: EPHA8; 1 μM; read-out: % control
T2 construct: purchased KINOMEscan (ScanMAX) service
T2 sequence (P29322 28-1005): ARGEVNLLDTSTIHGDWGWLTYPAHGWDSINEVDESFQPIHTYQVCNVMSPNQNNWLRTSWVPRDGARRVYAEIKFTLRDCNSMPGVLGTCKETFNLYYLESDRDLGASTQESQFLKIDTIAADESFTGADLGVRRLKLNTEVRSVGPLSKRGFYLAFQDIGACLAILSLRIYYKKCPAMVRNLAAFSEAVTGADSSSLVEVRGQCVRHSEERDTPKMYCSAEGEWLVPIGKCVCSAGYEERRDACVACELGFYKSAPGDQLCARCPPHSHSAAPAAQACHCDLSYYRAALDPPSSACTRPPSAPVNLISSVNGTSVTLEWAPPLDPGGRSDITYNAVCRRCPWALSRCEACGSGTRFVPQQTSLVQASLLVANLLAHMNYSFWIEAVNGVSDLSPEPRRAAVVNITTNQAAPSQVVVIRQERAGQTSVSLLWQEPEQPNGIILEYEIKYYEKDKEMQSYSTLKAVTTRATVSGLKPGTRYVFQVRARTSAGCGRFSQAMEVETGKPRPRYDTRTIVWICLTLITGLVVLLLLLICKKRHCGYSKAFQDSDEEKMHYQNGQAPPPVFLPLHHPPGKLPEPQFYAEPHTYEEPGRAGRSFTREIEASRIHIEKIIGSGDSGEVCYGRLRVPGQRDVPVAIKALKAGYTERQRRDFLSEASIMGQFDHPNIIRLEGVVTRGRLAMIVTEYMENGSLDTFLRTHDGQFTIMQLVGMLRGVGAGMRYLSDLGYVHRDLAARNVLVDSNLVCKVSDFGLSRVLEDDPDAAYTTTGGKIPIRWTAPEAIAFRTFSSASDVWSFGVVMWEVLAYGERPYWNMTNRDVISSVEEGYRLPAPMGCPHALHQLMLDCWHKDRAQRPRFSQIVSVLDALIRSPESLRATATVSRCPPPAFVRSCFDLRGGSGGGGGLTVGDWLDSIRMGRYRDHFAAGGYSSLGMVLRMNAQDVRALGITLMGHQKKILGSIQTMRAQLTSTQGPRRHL

Row | SMILES | remaining binding at 1 µM [1] | remaining binding at 1 µM [2]
1 | CNc1nc(Nc2ccc(C(=O)N3CCC(N4CCOCC4)CC3)c3c2OCO3)nc2[nH]cc(Cl)c12 [Compound 75, (7-((5-chloro-4-(methylamino)-7H-pyrrolo[2,3-d]pyrimidin-2-yl)amino)benzo[d][1,3]dioxol-4-yl)(4-morpholinopiperidin-1-yl)methanone] | 35% | 100%
2 | CNc1nc(Nc2ccc(S(=O)(=O)N3CCC(N4CCOCC4)CC3)cc2OC)nc2[nH]cc(Cl)c12 [Compound 12, 5-chloro-N2-(2-methoxy-4-((4-morpholinopiperidin-1-yl)sulfonyl)phenyl)-N4-methyl-7H-pyrrolo[2,3-d]pyrimidine-2,4-diamine] | 100% | 100%
3 | CNc1nc(Nc2ccc(P3(=O)CCN(C4CCOCC4)CC3)cc2OC)nc2[nH]cc(Cl)c12 [Compound 77, 4-(4-((5-chloro-4-(methylamino)-7H-pyrrolo[2,3-d]pyrimidin-2-yl)amino)-3-methoxyphenyl)-1-(tetrahydro-2H-pyran-4-yl)-1,4-azaphosphinane 4-oxide] | 98% | 100%

— patent US12479847B2 (DANA-FARBER CANCER INSTITUTE, INC., priority 2019, dated 2025)
